In publication PMC9380671, “Development of spiro-3-indolin-2-one containing compounds of antiproliferative and anti-SARS-CoV-2 properties” (Scientific Reports, 2022):
Read-outs that look alike come from different tables or passages of the source.

Legend:
[1] = system: PaCa2 (pancreatic) cancer cell line; experiment: MTT antiproliferation, PaCa-2; assay type: cell-based, human; conditions: for IC50: Homo sapiens, PaCa-2, 72 h, read-out: IC50 (µM) ± SEM PaCa-2; for SI (selectivity index) PaCa-2: IC50 of RPE1/IC50 of cancer cell line
Experimental: (§1) Antiproliferation properties of the targeted agents were investigated by the standard MTT technique against diverse human cancer cell lines [MCF7 (breast), HCT116 (colon), A431 (skin squamous) and PaCa2 (pancreatic)][67] (Table 1, Supplementary Figs. S48‒S51).
Cells were suspended in DMEM medium for MCF7, A431, PaCa-2 and McCoy’s 5A for HCT116 in addition to 1% antibiotic–antimycotic mixture (10000 μg ml^-1 potassium penicillin, 10000 μg ml^-1 streptomycin sulfate and 25 μg ml^-1 amphotericin B), 10% fetal bovine serum and 1% L-glutamine at 37 °C, under 5% CO2 and 95% humidity. Cells were seeded at concentration of 30000 cells per well in fresh complete growth medium in 96-well tissue culture microtiter plates for 24 h. Media was aspirated, fresh complete medium was added and cells were incubated with different concentrations of the tested compound to give a final concentration of [50, 25, 12.5 and 6.25 μM “in addition to 3.125, 1.56 and 0.78 μM in case of high potent analogues”). 0.5% DMSO was used as negative control. Triplicate wells were prepared for each individual dose. After 72 h of incubation, medium was aspirated, 40 μl MTT salt (2.5 mg ml^-1) was added to each well and incubated for further 4 h at 37 °C. To stop the reaction and dissolve the formed crystals, 150 μl of 10% sodium dodecyl sulfate (SDS) in deionized water was added to each well and incubated overnight at 37 °C. The absorbance was then measured at 570 nm and a reference wavelength of 595 nm.
(§2) Data were collected as mean values for experiments performed in triplicates for each individual dose which had been measured by MTT assay. […] The cell surviving fraction was calculated according to the following equation.
(§3) Surviving fraction = OpticaldensityO.D.oftreatedcellsO.D.ofcontrolcells
(§4) Statistical calculations for determination of the mean and standard error mean values were determined by SPSS 16 software. The observed anti-proliferative properties are presented in Table 1 (Supplementary Figs. S48‒S52).

[2] = target: BChE (Homo sapiens, UniProt P06276); experiment: BChE inhibition (DTNB, butyrylthiocholine iodide)
Chain of BChE (P06276 29-602, species assumed): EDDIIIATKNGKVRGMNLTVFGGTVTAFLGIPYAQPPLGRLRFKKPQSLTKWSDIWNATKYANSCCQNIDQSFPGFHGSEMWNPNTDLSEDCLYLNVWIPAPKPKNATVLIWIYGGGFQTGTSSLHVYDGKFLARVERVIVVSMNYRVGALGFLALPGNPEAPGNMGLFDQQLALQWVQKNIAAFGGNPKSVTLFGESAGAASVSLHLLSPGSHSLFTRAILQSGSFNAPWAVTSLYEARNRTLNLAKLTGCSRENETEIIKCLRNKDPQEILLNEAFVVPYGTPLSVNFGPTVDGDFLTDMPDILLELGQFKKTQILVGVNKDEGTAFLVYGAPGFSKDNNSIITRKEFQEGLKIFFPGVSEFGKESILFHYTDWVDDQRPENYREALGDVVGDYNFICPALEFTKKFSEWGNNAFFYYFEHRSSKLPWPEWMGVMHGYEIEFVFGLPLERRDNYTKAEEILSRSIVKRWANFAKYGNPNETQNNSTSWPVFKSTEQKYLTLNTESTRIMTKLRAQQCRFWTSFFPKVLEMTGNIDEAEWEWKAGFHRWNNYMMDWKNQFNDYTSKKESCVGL

[3] = system: RPE1 (normal human immortalized retinal pigment epithelial cell line); experiment: MTT toxicity towards normal cells, RPE1; assay type: cell-based; conditions: RPE-1, read-out: IC50 (µM) ± SEM RPE1
Experimental: The safety of the synthesized agents against non-cancer/normal RPE1 (retinal pigment epithelium) cell line was assessed (Table 1, Supplementary Fig. S52). The SI (selectivity index) for the tested compounds against RPE1 cell line confirms the safety towards non-cancer cells. […] Compound 6d and 6h which are also of high anti-PaCa2 show remarkable SI values (SI = > 3.8, > 3.6, respectively).
The agents synthesized were also tested against RPE1 (normal human immortalized retinal pigment epithelial cell line) cell (in DMEM-F12 medium) to determine the toxicity/selectivity towards normal cells relative to the cancer cell lines utilized.
as §4

[4] = target: AChE (Homo sapiens, UniProt P22303); experiment: AChE inhibition (DTNB, acetylthiocholine); assay type: biochemical; conditions: for IC50: read-out: AChE (IC50, μM) ± SD
Chain of AChE (P22303 32-614): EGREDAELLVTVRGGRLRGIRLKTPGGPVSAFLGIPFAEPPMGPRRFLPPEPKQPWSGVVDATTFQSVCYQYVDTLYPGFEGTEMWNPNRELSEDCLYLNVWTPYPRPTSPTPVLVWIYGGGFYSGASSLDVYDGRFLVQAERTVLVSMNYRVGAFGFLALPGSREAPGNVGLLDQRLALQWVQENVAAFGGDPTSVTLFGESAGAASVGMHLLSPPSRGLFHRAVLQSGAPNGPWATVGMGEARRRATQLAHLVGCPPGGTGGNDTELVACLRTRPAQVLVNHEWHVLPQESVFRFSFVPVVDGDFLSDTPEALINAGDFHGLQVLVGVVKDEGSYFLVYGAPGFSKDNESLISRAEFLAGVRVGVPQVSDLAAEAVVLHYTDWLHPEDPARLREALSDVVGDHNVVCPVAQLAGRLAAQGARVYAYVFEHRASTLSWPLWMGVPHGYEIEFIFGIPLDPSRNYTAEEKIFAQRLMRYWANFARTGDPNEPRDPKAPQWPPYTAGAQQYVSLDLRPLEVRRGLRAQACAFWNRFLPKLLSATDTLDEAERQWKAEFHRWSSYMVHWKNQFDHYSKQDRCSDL
Experimental: All compounds were dissolved in MeOH.

[5] = target: T1, EGFR (Homo sapiens, UniProt P00533); assay type: cell-based; conditions: western blot, MCF7, compound at its MTT IC50; for EGFR RQ (relative quantification): control RQ 3.4461
T1 construct: Western blot technique was considered for EGFR and VEGFR-2 properties determination; endogenous in cells; host or cells: MCF7 (breast cancer cell line)
T1 sequence (P00533 25-1210): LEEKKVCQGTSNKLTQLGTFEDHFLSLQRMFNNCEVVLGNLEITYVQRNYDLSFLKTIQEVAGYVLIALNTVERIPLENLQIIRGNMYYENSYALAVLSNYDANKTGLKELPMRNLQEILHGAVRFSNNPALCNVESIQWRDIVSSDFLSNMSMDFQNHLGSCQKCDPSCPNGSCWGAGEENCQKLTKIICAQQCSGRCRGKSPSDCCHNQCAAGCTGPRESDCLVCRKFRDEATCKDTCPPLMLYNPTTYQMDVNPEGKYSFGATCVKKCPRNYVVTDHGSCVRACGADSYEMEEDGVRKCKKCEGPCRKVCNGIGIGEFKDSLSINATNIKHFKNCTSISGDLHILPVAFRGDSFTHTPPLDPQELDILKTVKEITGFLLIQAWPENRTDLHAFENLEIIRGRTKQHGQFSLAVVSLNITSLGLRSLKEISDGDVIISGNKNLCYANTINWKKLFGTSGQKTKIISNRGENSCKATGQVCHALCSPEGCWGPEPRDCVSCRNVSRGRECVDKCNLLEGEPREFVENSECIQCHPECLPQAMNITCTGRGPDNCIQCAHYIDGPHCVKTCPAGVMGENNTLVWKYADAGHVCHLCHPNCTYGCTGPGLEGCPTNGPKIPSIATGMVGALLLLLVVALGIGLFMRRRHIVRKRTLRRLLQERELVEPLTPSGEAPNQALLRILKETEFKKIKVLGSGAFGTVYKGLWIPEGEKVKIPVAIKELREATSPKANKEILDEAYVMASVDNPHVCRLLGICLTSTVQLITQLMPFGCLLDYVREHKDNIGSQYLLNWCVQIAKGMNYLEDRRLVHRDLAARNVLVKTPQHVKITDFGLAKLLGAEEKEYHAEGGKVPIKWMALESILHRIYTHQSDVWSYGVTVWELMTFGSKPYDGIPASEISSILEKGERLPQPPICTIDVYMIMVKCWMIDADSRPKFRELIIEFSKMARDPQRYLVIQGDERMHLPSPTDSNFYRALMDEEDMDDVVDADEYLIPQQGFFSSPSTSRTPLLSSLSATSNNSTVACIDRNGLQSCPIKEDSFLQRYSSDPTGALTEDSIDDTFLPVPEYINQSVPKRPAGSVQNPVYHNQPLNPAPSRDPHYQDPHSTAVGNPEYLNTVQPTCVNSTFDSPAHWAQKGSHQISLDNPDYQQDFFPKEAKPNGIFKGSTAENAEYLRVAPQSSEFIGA
From the text: (§5) The western blot technique was applied utilizing the IC50 observed for each respective agent synthesized during MTT assay[85],[86]. Consideration of multi-targeted inhibitory properties investigation is based in the fact that cancer initiation and proliferation sometimes utilizes many receptors or signaling pathways.
(§6) Western blot technique was considered for EGFR and VEGFR-2 properties determination utilizing the IC50 observed of each respective agent synthesized during MTT assay against MCF7 (breast) cancer cell line. All the studies were conducted according to the manufacturer’s instruction.^10,^11

[6] = target: T2, VEGFR-2 (Homo sapiens, UniProt P35968); assay type: cell-based; conditions: western blot, MCF7, compound at its MTT IC50; for VEGFR-2 RQ (relative quantification): control RQ 3.2634
T2 construct: Western blot technique was considered for EGFR and VEGFR-2 properties determination; endogenous in cells; host or cells: MCF7 (breast cancer cell line)
T2 sequence (P35968 20-1356): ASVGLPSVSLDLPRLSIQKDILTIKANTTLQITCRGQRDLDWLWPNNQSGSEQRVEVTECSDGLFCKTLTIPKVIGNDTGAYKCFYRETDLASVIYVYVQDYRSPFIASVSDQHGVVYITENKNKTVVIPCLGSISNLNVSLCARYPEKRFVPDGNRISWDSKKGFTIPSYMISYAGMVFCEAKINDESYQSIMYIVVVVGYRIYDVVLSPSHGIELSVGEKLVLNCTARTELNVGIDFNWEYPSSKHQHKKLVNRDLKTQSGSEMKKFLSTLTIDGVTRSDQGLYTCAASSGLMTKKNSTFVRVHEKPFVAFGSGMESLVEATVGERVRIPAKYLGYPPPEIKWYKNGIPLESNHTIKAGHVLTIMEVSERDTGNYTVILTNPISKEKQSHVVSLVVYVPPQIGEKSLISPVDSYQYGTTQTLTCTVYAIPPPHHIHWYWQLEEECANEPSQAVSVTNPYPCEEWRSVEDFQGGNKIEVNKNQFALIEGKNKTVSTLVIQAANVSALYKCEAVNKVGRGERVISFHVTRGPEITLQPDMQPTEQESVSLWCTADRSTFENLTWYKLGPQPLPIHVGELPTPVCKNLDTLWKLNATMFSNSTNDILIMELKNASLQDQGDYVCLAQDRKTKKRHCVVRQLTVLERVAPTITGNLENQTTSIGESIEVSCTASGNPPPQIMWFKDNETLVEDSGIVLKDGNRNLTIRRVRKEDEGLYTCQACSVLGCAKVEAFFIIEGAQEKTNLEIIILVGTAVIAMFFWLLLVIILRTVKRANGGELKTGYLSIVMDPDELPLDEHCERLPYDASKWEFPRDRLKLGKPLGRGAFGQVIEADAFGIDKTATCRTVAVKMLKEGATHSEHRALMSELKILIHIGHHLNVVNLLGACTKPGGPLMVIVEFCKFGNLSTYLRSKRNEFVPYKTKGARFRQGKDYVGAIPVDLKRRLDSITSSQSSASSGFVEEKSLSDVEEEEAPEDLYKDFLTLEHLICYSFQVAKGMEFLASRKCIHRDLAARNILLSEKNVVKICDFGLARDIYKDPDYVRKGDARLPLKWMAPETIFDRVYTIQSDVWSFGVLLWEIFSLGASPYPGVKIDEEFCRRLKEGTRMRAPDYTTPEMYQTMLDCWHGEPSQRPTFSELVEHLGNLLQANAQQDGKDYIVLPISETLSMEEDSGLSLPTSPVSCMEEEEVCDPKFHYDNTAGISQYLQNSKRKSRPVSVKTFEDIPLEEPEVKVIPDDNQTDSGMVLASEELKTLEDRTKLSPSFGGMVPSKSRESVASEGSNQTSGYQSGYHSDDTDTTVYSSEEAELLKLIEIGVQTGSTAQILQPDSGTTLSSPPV
From the text: as §5, §6

[7] = system: HCT116 (colon) cancer cell line; experiment: MTT antiproliferation, HCT116; assay type: cell-based, human; conditions: for IC50: Homo sapiens, HCT-116, 72 h, read-out: IC50 (µM) ± SEM HCT116; for SI (selectivity index) HCT116: IC50 of RPE1/IC50 of cancer cell line
Experimental: as §1
(§7) Cells were seeded at concentration of 30000 cells per well in fresh complete growth medium in 96-well tissue culture microtiter plates for 24 h. […] 0.5% DMSO was used as negative control. Triplicate wells were prepared for each individual dose. After 72 h of incubation, medium was aspirated, 40 μl MTT salt (2.5 mg ml^-1) was added to each well and incubated for further 4 h at 37 °C. To stop the reaction and dissolve the formed crystals, 150 μl of 10% sodium dodecyl sulfate (SDS) in deionized water was added to each well and incubated overnight at 37 °C.
as §2, §3
(§8) Statistical calculations for determination of the mean and standard error mean values were determined by SPSS 16 software.

[8] = system: SARS-CoV-2 (hCoV-19/Egypt/NRC-03/2020); experiment: Vero-E6 cell viral infection model, anti-SARS-CoV-2 IC50 (CPE, crystal violet); assay type: cell-based; conditions: for IC50: Severe acute respiratory syndrome coronavirus 2, Vero C1008; for SI = CC50/IC50: Vero-E6, SARS-CoV-2
[9] = MTT cytotoxicity assay (CC50); assay type: cell-based; conditions: African green monkey, VERO-E6 cells
Experimental: The cytotoxic activity of the compounds was tested in VERO-E6 cells by using the 3-(4,5-dimethylthiazol-2-yl)-2,5-diphenyltetrazolium bromide (MTT) method with minor modifications. Briefly, the cells were seeded in 96 well-plates […] at a density of 3 x 10^5 cell/ml and incubated for 24 h at 37 °C in 5% CO2. After 24 h, cells were treated with various concentrated of the tested compounds in triplicates. 24 h later, the supernatant was discarded and cell monolayers were washed with sterile 1x phosphate buffer saline (PBS) 3 times and MTT solution (20 µl of 5 mg/ml) was added to each well and incubated at 37 °C for 4 h followed by medium aspiration. In each well, the formed formazan crystals were dissolved with 200 µl of acidified isopropanol (0.04 M HCl in absolute isopropanol = 0.073 ml HCl in 50 ml isopropanol). Eventually, the absorbance was measured at λmax 570 nm using the Anthos Zenyth 200rt plate reader (Anthos Labtec Instruments, Heerhugowaard, Netherlands). The cytotoxicity of various concentrations compared to the untreated cells was determined using nonlinear regression analysis by plotting log inhibitor versus normalized response.^12^-14

[10] = system: A431 (skin squamous) cancer cell line; experiment: MTT antiproliferation, A431; assay type: cell-based, human; conditions: for IC50: Homo sapiens; for SI (selectivity index) A431: IC50 of RPE1/IC50 of cancer cell line
Experimental: as §1, §7, §2, §3, §8

[11] = system: MCF7 (breast) cancer cell line; experiment: MTT antiproliferation, MCF7; assay type: cell-based, human; conditions: for IC50: Homo sapiens, MCF7, 72 h, read-out: IC50 (µM) ± SEM MCF7; for SI (selectivity index) MCF7: IC50 of RPE1/IC50 of cancer cell line
Experimental: as §1, §7, §2, §3, §8

[12] = Vero-E6, 72 h, reduction of virus-induced CPE, read-out: IC50 (µM) SARS-CoV-2
[13] = log of observed IC50 in μM, read-out: Observed log(IC50, μM) (SARS-CoV-2) (converted)
[14] = A-431, 72 h, read-out: IC50 (µM) ± SEM A431
[15] = A-431, read-out: Observed log(IC50, μM) (A431) (converted)

SMILES	IC50 [1] [µM]	SI (selectivity index) PaCa-2 [1]	IC50 [2] [µM]	IC50 [3] [µM]	SI = IC50 (AChE)/IC50 (BChE) [4]	IC50 [4] [µM]	EGFR % Inhibition [5] [%]	EGFR RQ (relative quantification) [5]	VEGFR-2 % Inhibition [6] [%]	VEGFR-2 RQ (relative quantification) [6]	IC50 [7] [µM]	SI (selectivity index) HCT116 [7]	IC50 [8, 12] [µM]	IC50 [8, 13] [µM]	SI = CC50/IC50 [8]	CC50 at 24 h [9] [µM]	IC50 [10, 14] [µM]	IC50 [10, 15] [µM]	SI (selectivity index) A431 [10]	IC50 [11] [µM]	further results
CN1CC(c2ccc(F)cc2)C2(CN(S(C)(=O)=O)C/C(=C\c3ccc(F)cc3)C2=O)C12C(=O)Nc1ccc(Cl)cc12 (centres unmarked) [Compound 6f, (E)-5-Chloro-5″-(4-fluorobenzylidene)-4′-(4-fluorophenyl)-1′-methyl-1″-(methylsulfonyl)dispiro[indoline-3,2′-pyrrolidine-3′,3″-piperidine]-2,4″-dione]	11.7 ± 0.94	1.5	3.75 ± 0.71	17.8 ± 0.87	1.0	3.89 ± 1.66	69.3	1.058	64.7	1.153	5.43 ± 0.46	3.3	7.67	7.67	8.8	67.8	4.76 ± 0.37	4.76	3.7	5 ± 0.39	times the potency of chloroquine against SARS-CoV-2 ([8]; ratio of IC50 values): about 3.3 times; times the potency of hydroxychloroquine against SARS-CoV-2 ([8]; ratio of IC50 values): ~4.8 times; SI (selectivity index) MCF7 [11]: 3.6
CCS(=O)(=O)N1C/C(=C\c2ccc(F)cc2)C(=O)C2(C1)C(c1ccc(F)cc1)CN(C)C21C(=O)Nc2ccccc21 (centres unmarked) [Compound 6g, (E)-1″-(Ethylsulfonyl)-5″-(4-fluorobenzylidene)-4′-(4-fluorophenyl)-1′-methyldispiro[indoline-3,2′-pyrrolidine-3′,3″-piperidine]-2,4″-dione]	28.4 ± 0.85	1.2	3.22 ± 0.92	33.4 ± 1.22	0.8	2.46 ± 0.99	62.8	1.28	63.7	1.186	4.94 ± 0.25	6.8	16.9	16.9	4.7	79.2	6.17 ± 0.44	6.17	5.4	10.3 ± 0.86	SI (selectivity index) MCF7 [11]: 3.2
CCS(=O)(=O)N1C/C(=C\c2ccc(F)cc2)C(=O)C2(C1)C(c1ccc(F)cc1)CN(C)C21C(=O)Nc2ccc(Cl)cc21 (centres unmarked) [Compound 6h, (E)-5-Chloro-1″-(ethylsulfonyl)-5″-(4-fluorobenzylidene)-4′-(4-fluorophenyl)-1′-methyldispiro[indoline-3,2′-pyrrolidine-3′,3″-piperidine]-2,4″-dione]	14 ± 0.73	> 3.6	8.07 ± 1.47	> 50	0.8	6.3 ± 0.97	67.2	1.13	66.2	1.104	4.6 ± 0.18	> 10.9	7.69	7.69	34.1	262	6.04 ± 0.26	6.04	> 8.3	4.69 ± 0.44	SI (selectivity index) MCF7 [11]: > 10.7
CN1CC(c2ccc(Cl)cc2)C2(CN(S(C)(=O)=O)C/C(=C\c3ccc(Cl)cc3)C2=O)C12C(=O)Nc1ccccc12 (centres unmarked) [Compound 6i, (E)-5″-(4-Chlorobenzylidene)-4′-(4-chlorophenyl)-1′-methyl-1″-(methylsulfonyl)dispiro[indoline-3,2′-pyrrolidine-3′,3″-piperidine]-2,4″-dione]	9.04 ± 0.62	1.6	13.6 ± 2.12	14.8 ± 1.57	1.3	18.2 ± 1.48	68.7	1.077	64.2	1.1684	5.47 ± 0.32	2.7	113	113	2.1	235	4.4 ± 0.49	4.4	3.4	5.01 ± 0.29	SI (selectivity index) MCF7 [11]: 2.9
CN1CC(c2ccc(Cl)cc2)C2(CN(S(C)(=O)=O)C/C(=C\c3ccc(Cl)cc3)C2=O)C12C(=O)Nc1ccc(Cl)cc12 (centres unmarked) [Compound 6j, (E)-5-Chloro-5″-(4-chlorobenzylidene)-4′-(4-chlorophenyl)-1′-methyl-1″-(methylsulfonyl)dispiro[indoline-3,2′-pyrrolidine-3′,3″-piperidine]-2,4″-dione]	8.83 ± 0.51	1.4	22.3 ± 3.33	12.5 ± 0.86	1.9	42.8 ± 4.61	63.3	1.2634	57.9	1.3745	4.72 ± 0.25	2.6	27.1	27.1	7.4	201	4.08 ± 0.21	4.08	3.1	4.51 ± 0.39	SI (selectivity index) MCF7 [11]: 2.8
